Experimental data from patent US20230382858A1 (Beckley Psytech Limited, priority 2020, published 2023).

Tests used:
Beagle dogs = assay: 14-day repeat-dose intranasal toxicity study with 14-day recovery in dogs (Study 62959); format: in vivo; conditions: dog; for animals with increased triglyceride level: vs control
Experimental: (§1) Assessments of mortality, clinical signs, olfactory reflex, body weights, food consumption, ophthalmology, and electrocardiograms were performed. In addition, clinical pathology assessments (hematology, coagulation, clinical chemistry and urinalysis) were evaluated once pretreatment and at termination. Blood samples were collected from the jugular vein of all animals on Days 1 and 14, at up to 8 time points relative to treatment, for analysis of test item concentration in plasma and the subsequent calculation of toxicokinetic parameters. Following dosing, the Main animals were euthanized and subjected to a complete necropsy examination on Day 15. […] All Main and Recovery study animals underwent complete necropsy examinations, selected tissues/organs were retained, and microscopic evaluations of a standard set of tissues were performed.

Sprague Dawley rats = assay: 14-day repeat-dose intranasal toxicity study with 14-day recovery in rats (Study 700041); format: in vivo, rat; conditions: for clinical signs: male and female; for microscopic changes in nasal cavities: male and/or female
Experimental: (§2) The animals were monitored for mortality, clinical signs, respiratory measurements, body weights, food consumption, and body temperature. Ophthalmoscopic examinations and respiratory function tests were performed on all animals at scheduled timepoints. Clinical pathology assessments (hematology, coagulation, clinical chemistry, and urinalysis) were evaluated at termination. […] Following dosing, the Main animals were euthanized and subjected to a complete necropsy examination on Day 15. […] TK animals were euthanized after the last blood collection and discarded without further examination. At terminal euthanasia, selected tissues/organs were weighed, and microscopic evaluations of a standard set of tissues including the nasal turbinates (4 sections) and brain (7 sections) were performed for all Main and Recovery study animals.
(§3) Following dosing, animals in the Main group were euthanized and subjected to a necropsy examination on Day 15.
Toxicity was based on the following parameters monitored: mortality/morbidity, clinical observations, body weights/gains, food consumption, ophthalmoscopy, clinical pathology (hematology, coagulation, chemistry, and urinalysis), necropsy observations, selected organ weights, and microscopic examination of a complete set of standard tissues including 4 cross levels of the nasal cavity and 7 sections of the brain.

[1] = Toxicokinetics in Study 700041; format: in vivo; conditions: rat, intranasal 20 mg/kg/day, Day 14, Male
Experimental: as §2, §3

dogs = assay: Maximum tolerated dose followed by 7-day repeat-dose toxicology in dogs (Study 62958); format: in vivo; conditions: dog
Experimental: In support of these objectives, the study consisted of 2 individual phases.
The test item was administered once by intranasal instillation to one male and female dog for up to 5 dose levels until the highest tolerable dose (MTD) was determined as described in Table 5.
During Phase 2, assessments of mortality, clinical signs, body weights and food consumption were performed. […] Following the last dosing, all animals were euthanized and subjected to a necropsy examination on Day 8. The necropsy consisted of an external examination; including reference to all clinically-recorded lesions, as well as a detailed internal examination. Study plan specific tissues/organs were collected and preserved following necropsy but were not further examined microscopically.

[2] = Toxicokinetics in Study 62958 (plasma 5MeODMT, LC/MS/MS); format: in vivo; conditions: dog, daily intranasal instillation, 7-day treatment period
Dog = assay: Summary of clinical observations in applicant-sponsored dog toxicity studies; format: in vivo; conditions: Dog 1.0 mg/kg (33 mg HED), preliminary data, ongoing study
Description: Based on preliminary data from another ongoing study in dogs, it has been observed that the site of blood sampling in dogs may impact the measured plasma exposure. Samples from the jugular vein may result in higher apparent exposure levels than samples from the cephalic vein, which might be due to the local transmucosal route of administration (also reported in the scientific literature (Illum, 2003; Sohlberg, 2013)). Therefore, dose escalation criteria for the Phase 1 Single Ascending Dose study are based on assessment of clinical criteria, safety factors and exposure. A maximum dose of 14 mg has been designated.

male Sprague-Dawley rats = assay: Functional Observational Battery (FOB), effects on CNS function (ITR study 15951); format: in vivo; conditions: rat
Experimental: The test and control/vehicle items were administered by single dose intranasal administration to both nostrils, as shown in Table 1.
Parameters monitored included mortality and clinical signs. General behavioral changes were assessed using FOB at 6 timepoints: before dosing, and at 15 minutes, 1, 2, 4, and 24 hours postdosing. On each occasion, the FOB was performed at 4 stages: when the animals were in their home cage, while handling the animals, when the animals were freely moving in an open-field, and when they received diverse stimuli for reactivity evaluation. The body temperature and neuromuscular strength were also measured on each of the occasions detailed above.

[3] = Toxicokinetics in Study 62959; format: in vivo; conditions: dog
Experimental: as §1
For toxicokinetics, a series of 8 blood samples were collected from the jugular vein from all treated animals on each of Days 1 and 14 of the treatment period at 2, 5, 10, 15, 30, and 60 minutes as well as 3 and 8 hours after treatment.

[4] = rat, dose levels ≤75 mg/kg/day for 14 days
[5] = dose escalation phase, single intranasal 2-5 mg/kg
[6] = phase 2, MTD once daily 5 days then twice daily Days 6 and 7
[7] = single intranasal 1, 5, and 10 mg/kg, all dose levels
[8] = intranasal 0.8 mg/kg/day, Day 1, Female
[9] = intranasal 0.8 mg/kg/day, Day 1, Male
[10] = intranasal 0.8 mg/kg/day, Day 14, Female

COc1ccc2[nH]cc(CCN(C)C)c2c1 [BPL-5MEO, 5-methoxy-N,N-dimethyltryptamine]
body temperature (Beagle dogs; Day 14, high dose group, both sexes, 15 and 30 minutes postdose): Transient body temperature increases | Triglyceride, Mean ± SD Day 14 (Beagle dogs; Group 2, 0.4 mg/kg/day, Females): 0.46 ± 0.61 mmol/L | Triglyceride, Mean ± SD Day 14 (Beagle dogs; Group 2, 0.4 mg/kg/day, Males): 0.40 ± 0.11 mmol/L | Triglyceride, Mean ± SD Day 14 (Beagle dogs; Group 3, 0.8 mg/kg/day, Females): 0.47 ± 0.22 mmol/L | Triglyceride, Mean ± SD Day 14 (Beagle dogs; Group 3, 0.8 mg/kg/day, Males): 0.44 ± 0.07 mmol/L | animals with increased triglyceride level (Beagle dogs; Group 3 female): 1/3 | animals with increased triglyceride level (Beagle dogs; Group 4 females): 4/5 | animals with increased triglyceride level (Beagle dogs; Group 4 male): 1/5 | additional clinical observations (Beagle dogs; Mid and High dose groups): eye discharge and shaking | time to resolution of clinical signs (Beagle dogs; all treated groups): ≤ 90 min | transient clinical observation (Beagle dogs; all treated groups): incoordination, vocalization, mydriasis, decreased or increased activity, increased respiration, gnawing cage wire, excessive licking of nose or lips and circling | additional clinical observation (Beagle dogs; high dose male animals): Erect penis | adverse effect on reproductive tissues (Sprague Dawley rats; 14-day pivotal GLP intranasal toxicity studies in rats and dogs): no evidence of an adverse effect on reproductive tissues | Thymus Mean Absolute Weight (Sprague Dawley rats; male rats, Group 2 (5 mg/kg/day), compared to the control value): −4 percentage | respiratory rate (Sprague Dawley rats; rat, 20 minutes postdose, vs pretreatment or control): decreases in respiratory rates | body temperature (Sprague Dawley rats; rat, Day 14, 15 and 30 minutes postdose, all treated male animals): slight body temperature increases | clinical signs (Sprague Dawley rats; rat, Group 2 (Low Dose) 5 mg/kg/day): incoordination, shaking, salivation, decreased activity, lying on cage floor and sensitive to touch | clinical signs (Sprague Dawley rats; rat, Group 3 (Mid Dose) 20 mg/kg/day): incoordination, shaking (or tremor), increased or shallow respiration, mydriasis, salivation, decreased activity, partially closed eyes, lying on cage floor and sensitive to touch | clinical signs (Sprague Dawley rats; rat, Group 4 (High Dose) 75 mg/kg/day): incoordination, shaking (or tremor), increased or shallow respiration, mydriasis, salivation, decreased activity, partially closed eyes, lying on cage floor and sensitive to touch | macroscopic findings (Sprague Dawley rats; rat, Main and Recovery groups): no macroscopic findings | microscopic findings in respiratory, transitional and/or olfactory epithelium of nasal cavities 1-4 (Sprague Dawley rats; rat, Main group): minimal to mild changes | microscopic changes in nasal cavities (Sprague Dawley rats; rat, Main group, 20 mg/kg/day (Group 3)): Minimal degeneration of the respiratory epithelium of the nasal cavities 1 and 2 | microscopic changes in nasal cavities (Sprague Dawley rats; rat, Main group, 5 and/or 20 mg/kg/day (Group 2 and 3)): Minimal degeneration of the olfactory epithelium of the nasal cavities 2 and 3 | reversibility of nasal microscopic changes (Sprague Dawley rats; rat, Recovery group, 14-day recovery period): incomplete but progressive ongoing reversal of epithelial degeneration | body weight gain (Sprague Dawley rats; rat, both sexes, Days 1 to 14): Slight, generally dose-dependent body weight gain suppression | activated partial thromboplastin times (APTT) (Sprague Dawley rats; rat, both sexes, mid (20 mg/kg/day) and high (75 mg/kg/day) dose groups, vs control): increased | clinical chemistry and urinalysis (Sprague Dawley rats; [4]): no changes in clinical chemistry and urinalysis parameters | food consumption (Sprague Dawley rats; [4]): no changes in food consumption | ocular effect (Sprague Dawley rats; [4]): no adverse ocular effect | mortality (Sprague Dawley rats; rat, intranasal 5, 20, 75 mg/kg/day, 14 days): No mortality | tolerability (Sprague Dawley rats; rat, intranasal, dose levels ≤75 mg/kg/day for 14 consecutive days): tolerated | platelet, neutrophil, monocyte and basophil counts (Sprague Dawley rats; rat, mid and high dose groups, both sexes, vs control): slightly increased | t1/2 [1]: 8.58 min | food intake (dogs; dose escalation phase, after Dose 1 and Dose 2): Slight decreases in food intake | clinical signs (dogs; [5]): gnawing cage wire, dilated pupils, changes in respiration, incoordination, decreased activity, vocalization, salivation, erect penis (for males) and shaking | mortality and bodyweights (dogs; [5]): no BPL-5MEO-related effects on mortality or bodyweights | duration of convulsion shortly after dosing (dogs; male animal, last escalating dose 3.5 mg/kg/day): 8 min | clinical signs (dogs; [6]): muscle stiffness, gnawing cage wire, dilated pupils, changes in respiration, decreased activity, incoordination, vocalization, salivation, erect penis (for the male) and shaking | mortality and bodyweights (dogs; [6]): no test item-related effects on mortality or bodyweights | accumulation [2]: did not accumulate | Clinical observation (Dog): Slight tremor | clinical sign in one animal (male Sprague-Dawley rats; single intranasal 10 mg/kg): twitching | FOB autonomic domain (male Sprague-Dawley rats; [7]): salivation, piloerection, increased respiration, dilated pupils and changes in body temperature | FOB neurological (sensorimotor)/neuromuscular domain (male Sprague-Dawley rats; [7]): transient changes in gait (difficulty in movement) | FOB behavioral domain (male Sprague-Dawley rats; single intranasal 1.5, 3, 10 mg/kg, 15 minutes postdose): transient decreased activity, lying on the cage floor, and decreased rearing | clinical signs in some animals (male Sprague-Dawley rats; single intranasal 3 and 10 mg/kg): Tremors, salivation, and gasping | clinical signs immediately following dosing (male Sprague-Dawley rats; single intranasal, all dose groups): decreased activity, lying on the cage floor, shallow/increased respiration and dilated pupils | AUC(0-inf) ([3]; Beagle, plasma, inhaled or intranasal, 1.5 mg/kg/day, combined for both sexes, read-out: AUCINF_obs corresponding to NOAEL): 220 ng·h/mL | Cmax ([3]; intranasal 0.4 mg/kg/day, Day 1, Male): 343 ng/mL | t1/2 ([3]; intranasal 0.4 mg/kg/day, Day 14, Female): 42.4 min | Tmax ([3]; intranasal 0.4 mg/kg/day, Day 14, Male): 6.66 min | AUCINF—obs [3, 8]: 265 ng·h/mL | t1/2 [3, 8]: 43.8 min | AUCINF—obs [3, 9]: 160 ng·h/mL | Tmax [3, 9]: 6.66 min | AUC0-Tlast [3, 10]: 248 ng·h/mL | Cmax [3, 10]: 244 ng/mL | Tmax ([3]; intranasal 0.8 mg/kg/day, Day 14, Male): 6.66 min | Tmax ([3]; intranasal 2.5 & […], Day 1, Female): 6.66 min | t1/2 ([3]; intranasal 2.5 & […], Day 14, Male): 49 min
